Measured values: patent publication US4317770A, “D-amino acid analogs of beta-endorphin” (Hoffmann-La Roche Inc., priority 1977, dated 1982)
“Also recorded” adds a separate entry of the source.

Experiments:
[1] = system: mice; experiment: analgesic potency in mice, tail-flick method, icv injection; type: in vivo, mouse; settings: for AD50 / Relative Potency (analgesic potency) / analgesic activity: mice, tail-flick; for AD50: 95% confidence limits in parentheses; for Relative Potency (analgesic potency): calculated on molar basis using the AD50 of βc-endorphin as 100%; for order of activity in the mouse tail flick method: human endorphin analogs vs camel endorphin analogs, route not stated
Method: (§1) The analgesic properties of β-endorphin and its analogs were also assessed in mice by the tail-flick method of D'Amour and Smith, supra. The peptides, dissolved in saline, were injected either icv in a volume of 5 μl, according to the method described by Haley and McCormick, Brit. J. Pharmacol. 12, 12 (1957) or iv via the tail vein. To evaluate this analgesic response, a control latency (T0) was obtained from the mean of two latencies determined prior to drug injections, and the test latencies (T1) were determined at various times after injection for each animal. "Percent analgesic" was calculated as [(T1 -T0)/[…]]×100, where the cut off time (T2) was 10 sec.

[2] = cited from earlier work; for in vivo analgesic activity (duration): injected intracranially / centrally
[3] = system: myenteric plexus longitudinal muscle preparation from guinea pig ileum; experiment: opiate activity, guinea pig ileum assay (electrically stimulated); type: cell-based; settings: for IC50: in vitro; for Relative Potency: relative to βc-endorphin = 100; for order of activity in the guinea pig ileum assay: human endorphin analogs vs camel endorphin analogs
Method: (§2) The opiate activities of the analogs relative to βc -endorphin were measured in vitro in the guinea pig ileum (Brit. J. Pharmacol. 39, 398 (1970)) and in vivo by icv and iv injections using the tail-flick method (D'Amour and Smith, J. Pharmacol. Exp. Ther. 72,74 (1941). The results are summarized in Tables 2 and 3.
The opiate activity was assayed in vitro by electrically stimulated myenteric plexus longitudinal muscle preparation from guinea pig ileum by the method of Kosterlitz et al., supra.

[4] = system: mice; experiment: analgesic potency in mice, tail-flick method, iv injection; type: in vivo, mouse; settings: for inhibition of tail-flick response: iv
Method: as §2, §1

[5] = injected into the peripheral system; cited from earlier work
[6] = system: leucine aminopeptidase; settings: compared with enkephalin; cited from earlier work

CN1CC[C@]23c4c5ccc(O)c4O[C@H]2[C@@H](O)C=C[C@H]3[C@H]1C5.O=S(=O)(O)O [Morphine sulfate, reference compound]
AD50 ([1]; icv): 0.42 (0.36-0.49) μg/25 g mouse

CC(C)C[C@H](NC(=O)[C@H](Cc1ccccc1)NC(=O)CNC(=O)CNC(=O)[C@@H](N)Cc1ccc(O)cc1)C(=O)O [enkephalin]
in vivo analgesic activity (duration) [2]: short duration

[D-Ala^2 ]-enkephalin
in vivo analgesic activity (duration) [2]: long-lasting analgesia

[D-Ala^2 ]-β-enkephalinamide
in vivo analgesic activity (duration) [2]: long-lasting analgesia
analgesic activity compared with enkephalin ([2]; relative to enkephalin, route not stated at the place): greater analgesic activity

[D-Ala^2 ]-βc -endorphin [[D-Ala^2]-βc -EP]
activity in in vitro assay relative to parent molecule ([3]; guinea pig ileum): 43%
IC50 ([3]; guinea pig ileum): 63 nM
Relative Potency [3]: 43
Relative Potency (analgesic potency) [1]: 100.0%
Relative Potency (analgesic potency) ([1]; listed as [D-Ala^2 ]-βc -endorphin): 100%
antagonism of analgesic response by naloxone ([1]; icv, doses of 0.11 to 0.42 μg): blocked by naloxone
duration of analgesic response ([1]; icv, doses of 0.11 to 0.42 μg): 30 to 90 min
antagonism of analgesic response by naloxone ([1]; icv, higher dose): also blocked by naloxone
duration of response at higher dose ([1]; icv, higher dose): prolonged
analgesic activity ([1]; icv): little alteration in analgesic activity
analgesic activity ([1]; icv, listed as [D-Ala^2 ]-β-endorphin): most significant analgesic activity; also recorded: equipotent to βc -endorphin; also recorded: dose-related increase in analgesic response
AD50 ([1]; icv): 0.11 (0.08-0.17) μg/25 g mouse
inhibition of tail-flick response ([4]; 25.5 mg/kg): not active

[D-Ala^2 ]-βh -endorphin
order of activity in the guinea pig ileum assay [3]: same order of activity
order of activity in the mouse tail flick method [1]: same order of activity

[D-Met^5 ]-βc -endorphin [[D-Met^5]-βc -EP]
IC50 ([3]; guinea pig ileum): 660 nM
Relative Potency [3]: 4
Relative Potency (analgesic potency) [1]: 1.0%
analgesic activity ([1]; icv): still possesses analgesic activity
AD50 ([1]; icv): 11.48 (7.17-18.36) μg/25 g mouse
inhibition of tail-flick response ([4]; even at 120 mg/kg): not active

[D-Met^5 ]-βh -endorphin
order of activity in the guinea pig ileum assay [3]: same order of activity
order of activity in the mouse tail flick method [1]: same order of activity

[D-Phe^4 ]-βc -endorphin [[D-Phe^4]-βc -EP]
IC50 ([3]; guinea pig ileum): 670 nM
Relative Potency [3]: 4
Relative Potency (analgesic potency) [1]: < 0.3%
behavioural effect (hyperreactivity) ([1]; icv, doses up to 43 μg): hyperreactivity to touch or vocal stimulation
inhibition of tail-flick response ([1]; icv, doses up to 43 μg): not active
AD50 ([1]; icv): > 43 μg/25 g mouse

[D-Phe^4 ]-βh -endorphin
order of activity in the guinea pig ileum assay [3]: same order of activity
order of activity in the mouse tail flick method [1]: same order of activity

[D-Tyr^1 ]-βc -endorphin [[D-Tyr^1]-βc -EP]
IC50 ([3]; guinea pig ileum): 2900 nM
Relative Potency [3]: ≤ 1
Relative Potency (analgesic potency) [1]: 0.5%
AD50 ([1]; icv): 22.5 (13.4-37.8) μg/25 g mouse

[D-Tyr^1 ]-βh -endorphin
order of activity in the guinea pig ileum assay [3]: same order of activity
order of activity in the mouse tail flick method [1]: same order of activity

β-endorphin
duration of action ([4]; intravenous, comparison of β-endorphin with D-Ala^2 analog): longer than its D-Ala^2 analog
AD50 ([4]; iv injection): 9.4 mg/kg
analgesic activity after iv injection ([4]; iv injection): potent analgesic
in vivo analgesic activity (duration) [2]: long lasting
in vivo analgesic activity, peripheral injection [5]: displays in vivo analgesic activity when injected into the peripheral system

βc -endorphin: β-endorphin having a sequence derived from camel; synthesized as control (YGGFMTSEKSQTPLVTLFKNAIIKNAHKKGQ; Beta-endorphin; UniProt P01203 1-31, looked up) [reference compound]
IC50 ([3]; guinea pig ileum): 27 nM
Relative Potency [3]: 100
Relative Potency (analgesic potency) [1]: 100.0%
analgesic activity ([1]; icv): much more active than morphine
AD50 ([1]; icv): 0.11 (0.07-0.17) μg/25 g mouse
resistance to attack by leucine aminopeptidase [6]: substantially more resistant to attack by leucine aminopeptidase than is enkephalin
